# Measurements reported in patent US20230101069A1, “AGENTS FOR USE IN THE TREATMENT OF TISSUE DAMAGE 2” (UCL BUSINESS LTD, priority 2020, published 2023).
# Molecular target: T1, CRP (Homo sapiens, UniProt P02741)
# T1 sequence (P02741 19-224): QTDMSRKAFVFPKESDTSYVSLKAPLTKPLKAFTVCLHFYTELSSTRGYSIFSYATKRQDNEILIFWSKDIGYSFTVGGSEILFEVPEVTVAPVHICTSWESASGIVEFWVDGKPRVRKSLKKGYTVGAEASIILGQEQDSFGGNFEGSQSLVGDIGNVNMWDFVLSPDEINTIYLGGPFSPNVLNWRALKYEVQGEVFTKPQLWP
# Experiment: not given
# Details: rats undergoing coronary artery ligation and receiving human CRP; cited from earlier work
row,Compound,increased damage caused by human CRP after coronary artery ligation
1,"C[N+](C)(C)CCOP(=O)([O-])OCCCCCCOP(=O)([O-])OCC[N+](C)(C)C [BPC6, bis(phosphocholine)hexane]",completely abrogated the increased damage

# Molecular target: T1, CRP
# Experiment: MIRA immunoturbidimetric assay (inhibition of CRP recognition, COBAS MIRA autoanalyser)
# Type: binding
# Set-up: The final concentrations were 0.73 μM native pentameric CRP; from tissue
# Details: 0.73 μM native pentameric CRP, TC buffer, 1 h at room temperature; read-out: IC50
# Text: The CRP immunoturbidimetric assay on the Roche COBAS MIRA Plus autoanalyser, utilises two different sized latex particles that are covalently coupled with two different monoclonal antibodies with specificity for different CRP epitopes (5). The assay was validated by Roche for measurement of native pentameric CRP, for which it has high sensitivity and specificity and a high upper detection limit; it was calibrated against a standard produced in our laboratory. Serendipitously, one of the assay's antibodies binds to an epitope present on the ligand binding B face of CRP. Thus, when the binding pocket is occupied by ligand or is occluded, for example by B face to B face complexing of pentamers, the assay fails to detect CRP although it is demonstrable by other types of assays that employ antibodies which bind to different epitopes. Bivalent compounds such as BPC8 and APL-2191 were designed to crosslink pairs of CRP pentamers. Therefore, inhibition of CRP recognition in the MIRA assay is a convenient tool to monitor the efficacy and potency of complex formation between such ligands and CRP (6).
# CRP concentrations were measured in the presence and absence of ligands by the COBAS MIRA autoanalyser. Concentrated Tris-calcium buffer (×10 TC) was prepared in MilliQ water from trishydroxymethyamine (100 mM), calcium chloride (20 mM) and sodium chloride (1.4 M). The pH was adjusted to 8.0 using HCl and sodium azide was added (0.1% w/v); the buffer was stored at 4° C. A tenfold diluted working buffer (TC) was prepared by dilution 100 ml of the ×10 concentrated buffer with 900 ml of MilliQ water. Human CRP was isolated, purified and characterised as previously reported (6-9) and stored frozen at −80° C. When required, stock CRP was thawed at 37° C. and working dilutions prepared that were kept at 4° C. for the duration of an experiment. CRP concentration was determined spectrophotometrically (Beckman Coulter DU 650) in quartz cuvettes with a 1 cm light path, by measuring […] after correction for absorbance at 320 nm (light scattering) and using the measured absorption coefficient A (1%, 1 cm)=17.5 for human CRP (10). Human CRP at ˜90 μg/ml (0.78 μM of pentamer) in TC buffer was prepared from a stock solution; a 75 μl aliquot was used in the assay. Compounds were supplied by Wuxi AppTec (Wuhan, China) as solids. They were dissolved in TC buffer at suitable concentrations, depending on solubility, of up to 10 mM (labelled S1). They were then serially diluted 1:2 with TC buffer (100 μl ligand+200 μl TC) to provide up to 9 dilutions, S2-S10. A TC buffer control (50) was included in each assay. A 15 μl volume of each ligand solution was incubated with 75 μl of CRP for 1 h at room temperature. The final concentrations were 0.73 μM native pentameric CRP, ligands S1-S10=625-0.03 μM, corresponding to ligand:CRPr ratios of 850-0.04. Where compounds were of reduced solubility in TC buffer, lower stock concentrations were used (from 0.6 mM), corresponding to final top assay concentrations of 100 μM.
# Data are expressed as measured CRP (mg/L) against final total ligand concentration (μM) and were plotted using Sigmaplot (V14) using the 4 parameter logistic curve y=min+(max−min)/(1+(x/EC50)[…]) to calculate EC50. Where appropriate, samples were also measured in whole normal human serum following the addition of a known amount of human CRP. All compounds were assayed in comparison with a highly purified preparation of bis(phosphocholine)octane (BPC8), that was prepared by Carbogen AMCIS AG and diluted into sterile water at 10 mM concentration. It was stored at −80° C. The solution was diluted into TC buffer as required.
row,Compound,IC50
1,"O=C(N[C@@H](C(=O)O)C1CN2CCC1CC2)c1ccc(C(=O)N[C@@H](C(=O)O)C2CN3CCC2CC3)cc1 (stereo partly drawn) [Example 1, (R,2R,2′R)-2,2′-(terephthaloylbis(azanediyl))bis(2-((R)-quinuclidin-3-yl)acetic acid)]",0.6 µM
2,"O=C(N[C@@H](C(=O)O)[C@H]1CN2CCC1CC2)c1ccc(C(=O)N[C@@H](C(=O)O)[C@H]2CN3CCC2CC3)nc1 [Example 2, (R,2R,2′R)-2,2′-((pyridine-2,5-dicarbonyl)bis(azanediyl))bis(2-((R)-quinuclidinyl)acetic acid)]",0.65 µM
3,"O=C(N[C@@H](C(=O)O)[C@H]1CN2CCC1CC2)c1cnc(C(=O)N[C@@H](C(=O)O)[C@H]2CN3CCC2CC3)cn1 [Example 3, (R,2R,2′R)-2,2′-((pyrazine-2,5-dicarbonyl)bis(azanediyl))bis(2-((R)-quinuclidinyl)acetic acid)]",1.22 µM
4,"O=C(N[C@@H](C(=O)O)[C@H]1CN2CCC1CC2)c1ccc(C(=O)N[C@@H](C(=O)O)[C@H]2CN3CCC2CC3)nn1 [Example 4, (R,2R,2′R)-2,2′-((pyridazine-3,6-dicarbonyl)bis(azanediyl))bis(2-((R)-quinuclidin-3-yl)acetic acid)]",0.58 µM
5,"O=C(N[C@@H](C(=O)O)[C@H]1CN2CCC1CC2)c1ccc(-c2ccc(C(=O)N[C@@H](C(=O)O)[C@H]3CN4CCC3CC4)cc2)cc1 [Example 5, (R)-2-(4′-(((R)-carboxy((R)-quinuclidin-3-yl)methyl)carbamoyl)-[1,1′-biphenyl]-4-ylcarboxamido)-2-((R)-quinuclidin-3-yl)acetic acid]",0.73 µM
6,"Cc1cc(C(=O)N[C@@H](C(=O)O)[C@H]2CN3CCC2CC3)ccc1-c1ccc(C(=O)N[C@@H](C(=O)O)[C@H]2CN3CCC2CC3)cc1 [Example 6, (R)-2-(4′-(((R)-carboxy((R)-quinuclidin-3-yl)methyl)carbamoyl)-2′-methyl-[1,1′-biphenyl]-4-ylcarboxamido)-2-((R)-quinuclidin-3-yl)acetic acid]",0.56 µM
7,"O=C(N[C@@H](C(=O)O)[C@H]1CN2CCC1CC2)c1ccc2cc(C(=O)N[C@@H](C(=O)O)[C@H]3CN4CCC3CC4)ccc2c1 [Example 7, (R,2R,2′R)-2,2′-((naphthalene-2,6-dicarbonyl)bis(azanediyl))bis(2-((R)-quinuclidin-3-yl)acetic acid)]",0.51 µM
8,Cc1cc(C(=O)N[C@@H](C(=O)O)[C@H]2CN3CCC2CC3)c(C)cc1C(=O)N[C@@H](C(=O)O)[C@H]1CN2CCC1CC2 [Example 8],0.59 µM
9,Cc1cc(C(=O)N[C@@H](C(=O)O)[C@H]2CN3CCC2CC3)ccc1C(=O)N[C@@H](C(=O)O)[C@H]1CN2CCC1CC2 [Example 9],0.55 µM
10,O=C(N[C@@H](C(=O)O)[C@H]1CN2CCC1CC2)c1cc(OCc2ccccc2)c(C(=O)N[C@@H](C(=O)O)[C@H]2CN3CCC2CC3)cc1OCc1ccccc1 [Example 10],0.67 µM
11,"O=C(N[C@@H](C(=O)O)[C@H]1CN2CCC1CC2)c1cccc(C(=O)N[C@@H](C(=O)O)[C@H]2CN3CCC2CC3)c1 [Example 11, 2-[[3-[[carboxy-1(3R)-quinuclidin-3-yl]methyl]carbamoyl]benzoylamino]-2-[(3R)-quinuclidin-3-yl]acetic acid]",2.02 µM
12,"C[N+](C)(C)CCOP(=O)(O)OCCCCCCCCOP(=O)(O)OCC[N+](C)(C)C [Example 12, bis(phosphocholine)octane]",1.2 µM

# Same assay, conditions: alternative stereoisomers of the formula (I) structure; read-out: IC50 of alternative stereoisomers (QA,QA: Quinuclidine, Amino Acid)
row,Compound,IC50
1,"O=C(NC(C(=O)O)C1CN2CCC1CC2)c1ccc(C(=O)NC(C(=O)O)C2CN3CCC2CC3)cc1 (single isomer, unassigned) [RS,RR]",> 1000 µM
2,"O=C(NC(C(=O)O)C1CN2CCC1CC2)c1ccc(C(=O)NC(C(=O)O)C2CN3CCC2CC3)cc1 (single isomer, unassigned) [RS,RS]",> 1000 µM
3,"O=C(NC(C(=O)O)C1CN2CCC1CC2)c1ccc(C(=O)NC(C(=O)O)C2CN3CCC2CC3)cc1 (single isomer, unassigned) [SR,SR]",> 1000 µM
4,"O=C(NC(C(=O)O)C1CN2CCC1CC2)c1ccc(C(=O)NC(C(=O)O)C2CN3CCC2CC3)cc1 (single isomer, unassigned) [SS,SS]",34.4 µM

# Molecular target: T1, CRP
# Experiment: inhibition of CRP binding in vitro
# Details: Pepys, unpublished observations
row,Compound,"potency as inhibitor of CRP binding in vitro, compared with BPC6"
1,"C[N+](C)(C)CCOP(=O)(O)OCCCCCCCCOP(=O)(O)OCC[N+](C)(C)C [Example 12, bis(phosphocholine)octane]",more potent inhibitor of CRP binding in vitro

# Molecular target: T1, CRP
# Experiment: rat acute myocardial infarction model (coronary artery ligation) with administered human CRP
# Type: in vivo
# Details: ischaemia reperfusion design and terminal coronary artery ligation, Pepys, unpublished observations
# Text: Human CRP and activated rat complement were deposited in and around the infarct and the exacerbation of tissue damage was absolutely complement dependent. Similar observations were made in the middle cerebral artery occlusion model of stroke in rats (3).
# The design of the first small molecule inhibitor of CRP binding for use in vivo, bis(phosphocholine)hexane (BPC6), enabled conclusive confirmation of the pathogenic role of human CRP in exacerbating tissue damage after ischaemic infarction (2).
# BPC6 and BPC8 are avidly bound by CRP, cross linking pairs of the native pentameric protein molecules. […] However, the bis(phosphocholine)alkane series of compounds were difficult to synthesise and purify at scale.
row,Compound,protective effect against human CRP pathogenicity
1,"C[N+](C)(C)CCOP(=O)(O)OCCCCCCCCOP(=O)(O)OCC[N+](C)(C)C [Example 12, bis(phosphocholine)octane]",same protective effect
